Test results as given in patent publication US11771086B2, “Pest control composition including novel iminopyridine derivative” (priority 2012, dated 2023).

Experiments:
[1] = test system: Nilaparvata lugens resistant population II; assay: Reference Test Example 19 Pest control test of Nilaparvata lugens, resistant population II (soil drench); format: in vivo; settings: for Insecticidal effects against Nilaparvata lugens (death rate %), Resistant population II: soil drench, six days
Protocol: (§1) Three days after the treatment, ten second instar larvae of Nilaparvata lugens, which had been collected outdoors and proliferated indoors, were each released to the rice seedling. […] Test in duplicate.
(§2) Furthermore, for comparison, the test against a species of Nilaparvata lugens which is highly susceptible to imidacloprid was performed by the same method as described above, and the results thereof are shown in Table 45. […] Meanwhile, the death rates of imidacloprid at 0.05 mg/seedling were (susceptible species) 100%, (resistant population I) 38% and (resistant population II) 69%, and the insecticidal effect thereof was also low even at a high dose. From the above results, it became obvious that Compound P212 and Compound 1-20 have high insecticidal effects even against Nilaparvata lugens resistance against imidacloprid.
(§3) Further, for the origin of test pests, bugs collected outdoors from the Kumamoto prefecture (I) in 2007 and from the Fukuoka prefecture (II) in 2005 as resistant population of Nilaparvata lugens, and bugs collected from the Kagoshima prefecture and then successively reared indoors for a long time as the imidacloprid susceptible population of Nilaparvata lugens were used.

[2] = test system: Frankliniella occidentalis; assay: Reference Test Example 9 Pest control test of Frankliniella occidentalis (foliar treatment, single agent); format: in vivo; settings: 72 h
Protocol: After an air drying process, first instar larvae were released to the leaf disk. Thereafter, the larvae were left to stand in a thermostatic chamber (16 hours of light period-8 hours of dark period) at 25° C. […] Test in duplicate. Mortality of larvae (%)={number of dead larvae/(number of survived larvae+number of dead larvae)}×100

Aphis gossypii [3] = assay: Reference Test Example 3 Pest control test of Aphis gossypii (foliar treatment, single agent); format: in vivo
Protocol: After an air drying process, first instar larvae were released thereto. Thereafter, the larvae were left to stand in a thermostatic chamber (16 hours of light period-8 hours of dark period) at 25° C. […] Test in duplicate. Mortality (%)={number of dead larvae/(number of survived larvae+number of dead larvae)}×100

[4] = test system: Nilaparvata lugens susceptible species (highly susceptible to imidacloprid); assay: Reference Test Example 19 Pest control test of Nilaparvata lugens, imidacloprid susceptible species (soil drench); format: in vivo; settings: for Insecticidal effects against Nilaparvata lugens (death rate %), Susceptible population: soil drench, six days
Protocol: as §1, §2, §3

Spodoptera litura = assay: Reference Test Example 2 Pest control test of Spodoptera litura (foliar treatment, single agent); format: in vivo; settings: 72 h
From the text: After an air drying process, third instar larvae were released thereto. […] Test in duplicate.

[5] = test system: Trigonotylus caelestialium; assay: Reference Test Example 10 Pest control test of Trigonotylus caelestialium (dipping treatment); format: in vivo; settings: 72 h
Protocol: After an air drying process, the wheat seedling leaves and stems were placed into a glass tube, and two second instar larvae of Trigonotylus coelestialium were released to the same glass tube. After the larvae were released, the tube was lidded to leave the larvae to stand in a thermostatic chamber at 25° C. In order to supply water to the wheat during the test, water was given to the wheat from the bottom of the glass tube. […] Test in triplicate.

Nilaparvata lugens = assay: Reference Test Example 5 Pest control test of Nilaparvata lugens (foliar treatment, single agent); format: in vivo; settings: 144 h
From the text: (§4) After an air drying process, second instar larvae were released thereto. […] Test in duplicate.

Laodelphax striatella [6] = assay: whole plant or invertebrate; settings: Laodelphax striatellus, soil, 72 h, soil irrigation
Protocol: After the rice seedling was left to stand for 3 days, second instar larvae were released thereto. Thereafter, the larvae were left to stand in a thermostatic chamber (16 hours of light period-8 hours of dark period) at 25° C. […] The test was performed in duplicate. Mortality of larvae (%)={number of dead larvae/(number of survived larvae+number of dead larvae)}×100
B: 100−(mortality of larvae or adults when treated only with each of imidacloprid, fipronil, chlorantraniliprole, spinosad, clothianidin, dinotefuran, sulfoxaflor, pymetrozine, thiamethoxam, flupyradifurone and cycloxaprid))
(§5) Method for Judging Synergistic Effects
When the mortality against Laodelphax striatella in the case of a mixture with another agent exceeded the theoretical value by the Colby's equation, a synergistic effect was judged to be present.

Laodelphax striatella [7] = assay: whole plant or invertebrate; format: in vivo
Protocol: After an air drying process, second instar larvae were released thereto. […] The test was performed in duplicate.
as §5

Laodelphax striatella [8] = assay: Reference Test Example 4 Pest control test of Laodelphax striatella (foliar treatment, single agent); format: in vivo; settings: Laodelphax striatellus, 72 h
From the text: as §4

Plutella xylostella = assay: Reference Test Example 1 Pest control test of Plutella xylostella (foliar treatment, single agent); format: in vivo
From the text: as §4

[9] = test system: Nilaparvata lugens resistant population I; assay: Reference Test Example 19 Pest control test of Nilaparvata lugens, resistant population I (soil drench); format: in vivo; settings: for Insecticidal effects against Nilaparvata lugens (death rate %), Resistant population I: soil drench, six days
Protocol: as §1, §2, §3

Aphis gossypii [10] = assay: whole plant or invertebrate; format: in vivo; settings: Aphis gossypii
Protocol: The test was performed in duplicate.
as §5

Laodelphax striatella [11] = assay: Reference Test Example 18 Pest control test of Laodelphax striatella (wheat seedling root treatment); format: in vivo; settings: wheat seedling roots treated; four days after release; 20 μg/seedling
Protocol: The drug was absorbed from the roots for 72 hours, and then ten second instar larvae of Laodelphax striatella were each released thereto. […] The test was performed in duplicate.

Sogatella furcifera = assay: Reference Test Example 6 Pest control test of Sogatella furcifera (foliar treatment, single agent); format: in vivo; settings: 96 h
From the text: as §4

[12] = format: in vivo; settings: single agent 0.125 mg/seedling; soil irrigation; seven days after inoculation

SMILES: FC(F)(F)C(=S)/N=c1\ccccn1Cc1ccc(Cl)nc1 [Compound 1-20, N-[1-((6-chloropyridin-3-yl)methyl)pyridin-2(1H)-ylidene]-2,2,2-trifluoroethanethioamide]
- death rates of larvae ([1]; resistant population II, 0.005 mg/seedling, six days after the release): 85%
- Insecticidal effects against Nilaparvata lugens (death rate %), Resistant population II ([1]; throughput 0.005 mg/seedling): 85%
- Insecticidal effects against Nilaparvata lugens (death rate %), Resistant population II ([1]; throughput 0.01 mg/seedling): 100%
- mortality at 500 ppm [2]: ≥ 80%
- mortality at 100 ppm (Aphis gossypii [3]; Aphis gossypii, foliar, 72 h): ≥ 80%
- Aphis gossypii (Reference Test Example 3), mortality of larvae (Aphis gossypii [3]; foliar treatment, single agent): 100%
- death rates of larvae ([4]; susceptible species, 0.005 mg/seedling, six days after the release): 100%
- Insecticidal effects against Nilaparvata lugens (death rate %), Susceptible population ([4]; throughput 0.005 mg/seedling): 100%
- Insecticidal effects against Nilaparvata lugens (death rate %), Susceptible population ([4]; throughput 0.01 mg/seedling): 95%
- mortality at 500 ppm (Spodoptera litura): ≥ 80%
- mortality at 50 ppm [5]: ≥ 80%
- mortality at 100 ppm (Nilaparvata lugens): ≥ 80%
- mortality at 0.005 mg/seedling (Laodelphax striatella [6]; read-out: Mortality of single agent against Laodelphax striatella, single agent 0.005 mg/Seedling): 12%
- Theoretical value by Colby's equation (Laodelphax striatella [7]; Laodelphax striatella foliar, single agent 0.625 ppm (other component 0)): 90%
- mortality at 0.625 ppm (Laodelphax striatella [7]; Laodelphax striatellus, foliar, 72 h, read-out: Mortality of single agent against Laodelphax striatella): 90%
- mortality at 100 ppm (Laodelphax striatella [8]): ≥ 80%
- mortality at 100 ppm (Plutella xylostella; Plutella xylostella, foliar, 72 h): ≥ 80%
- Plutella xylostella (Reference Test Example 1), mortality of larvae (Plutella xylostella; foliar treatment, single agent): 100%
- death rates of larvae ([9]; resistant population I, 0.005 mg/seedling, six days after the release): 77%
- Insecticidal effects against Nilaparvata lugens (death rate %), Resistant population I ([9]; throughput 0.005 mg/seedling): 77%
- Insecticidal effects against Nilaparvata lugens (death rate %), Resistant population I ([9]; throughput 0.01 mg/seedling): 100%
- mortality at 0.625 ppm (Aphis gossypii [10]; foliar, 72 h, read-out: Mortality of single agent against Aphis gossypii): 19%
- Theoretical value by Colby's equation (Aphis gossypii [10]; single agent 0.625 ppm (other component 0)): 19%
- Laodelphax striatella (Reference Test Example 18), mortality of larvae (Laodelphax striatella [11]): 100%
- mortality at 100 ppm (Sogatella furcifera): ≥ 80%

SMILES: C=CCOC1=NS(=O)(=O)c2ccccc21 [Probenazole]
- Preventive value (rice blast, number of lesions) [12]: 96.7
- mortality at 0.5 mg/seedling (Laodelphax striatella [6]; read-out: Mortality of single agent against Laodelphax striatella, single agent 0.5 mg/Seedling): 9%
